{"source": "patent US10336732B2", "about": "“1-heterocyclyl isochromanyl compounds and analogs for treating CNS disorders” (Sunovion Pharmaceuticals Inc., priority 2015, dated 2019)", "data": [{"test_system": "mice", "experiment": "Neuropharmacological assay (SmartCube), behavioral signature of compound-treated mice", "assay_type": "in vivo", "conditions": "i.p. 15 min before behavioral test, most efficacious dose(s) of 3 doses", "how_it_was_run": "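Mice received compound i.p. in NMP/PEG/propylene glycol vehicle at 3 doses, 15 min before testing. Video-captured behavior was algorithmically compared with a reference-drug signature database.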", "values": [{"compound": "Clc1ccc2c(c1)[C@H]([C@@H]1CCCN1)OCC2", "note": "[Compound I-29, (S)-2-((R)-7-chloroisochroman-1-yl)pyrrolidine]", "AD: ADHD (probability that behavioral signature matches class)": "+ (LOQ ≤ + <5%)", "AG: analgesic (probability that behavioral signature matches class)": "++ (5% ≤ ++ <25%)", "AX: anxiolytic (probability that behavioral signature matches class)": "+++ (25% ≤ +++ <50%)", "CE: cognitive enhancer (probability that behavioral signature matches class)": "+++ (25% ≤ +++ <50%)", "DP: anti-depressant (probability that behavioral signature matches class)": "++ (5% ≤ ++ <25%)", "HA: hallucinogen (probability that behavioral signature matches class)": "+ (LOQ ≤ + <5%)", "MS: mood stabilizer (probability that behavioral signature matches class)": "++ (5% ≤ ++ <25%)", "PS: anti-psychotic (probability that behavioral signature matches class)": "++ (5% ≤ ++ <25%)", "SD: sedative hypnotic (probability that behavioral signature matches class)": "+ (LOQ ≤ + <5%)", "UN: uncharacterized CNS activity (probability that behavioral signature matches class)": "++ (5% ≤ ++ <25%)", "XG: anxiogenic (probability that behavioral signature matches class)": "+ (LOQ ≤ + <5%)"}, {"compound": "Fc1cccc2c1[C@H]([C@@H]1CCCN1)OCC2", "note": "[Compound I-1, (S)-2-((R)-8-fluoroisochroman-1-yl)pyrrolidine]", "AD: ADHD (probability that behavioral signature matches class)": "+ (LOQ ≤ + <5%)", "AG: analgesic (probability that behavioral signature matches class)": "++ (5% ≤ ++ <25%)", "AX: anxiolytic (probability that behavioral signature matches class)": "++ (5% ≤ ++ <25%)", "CE: cognitive enhancer (probability that behavioral signature matches class)": "++ (5% ≤ ++ <25%)", "DP: anti-depressant (probability that behavioral signature matches class)": "++ (5% ≤ ++ <25%)", "HA: hallucinogen (probability that behavioral signature matches class)": "+ (LOQ ≤ + <5%)", "MS: mood stabilizer (probability that behavioral signature matches class)": "++ (5% ≤ ++ <25%)", "PS: anti-psychotic (probability that behavioral signature matches class)": "+++ (25% ≤ +++ <50%)", "SD: sedative hypnotic (probability that behavioral signature matches class)": "++ (5% ≤ ++ <25%)", "UN: uncharacterized CNS activity (probability that behavioral signature matches class)": "++ (5% ≤ ++ <25%)", "XG: anxiogenic (probability that behavioral signature matches class)": "+ (LOQ ≤ + <5%)"}, {"compound": "Fc1cccc2c1[C@H]([C@@H]1CCN1)OCC2", "note": "[Compound I-83, (S)-2-((R)-8-fluoroisochroman-1-yl)azetidine]", "AD: ADHD (probability that behavioral signature matches class)": "++ (5% ≤ ++ <25%)", "AG: analgesic (probability that behavioral signature matches class)": "++ (5% ≤ ++ <25%)", "AX: anxiolytic (probability that behavioral signature matches class)": "++ (5% ≤ ++ <25%)", "CE: cognitive enhancer (probability that behavioral signature matches class)": "+++ (25% ≤ +++ <50%)", "DP: anti-depressant (probability that behavioral signature matches class)": "++ (5% ≤ ++ <25%)", "HA: hallucinogen (probability that behavioral signature matches class)": "+ (LOQ ≤ + <5%)", "MS: mood stabilizer (probability that behavioral signature matches class)": "++ (5% ≤ ++ <25%)", "PS: anti-psychotic (probability that behavioral signature matches class)": "+++ (25% ≤ +++ <50%)", "SD: sedative hypnotic (probability that behavioral signature matches class)": "+ (LOQ ≤ + <5%)", "UN: uncharacterized CNS activity (probability that behavioral signature matches class)": "+ (LOQ ≤ + <5%)", "XG: anxiogenic (probability that behavioral signature matches class)": "+ (LOQ ≤ + <5%)"}, {"compound": "Fc1ccc2c(c1)CCO[C@H]2[C@@H]1CCCN1", "note": "[Compound I-9, (S)-2-((R)-6-fluoroisochroman-1-yl)pyrrolidine]", "AD: ADHD (probability that behavioral signature matches class)": "+ (LOQ ≤ + <5%)", "AG: analgesic (probability that behavioral signature matches class)": "++ (5% ≤ ++ <25%)", "AX: anxiolytic (probability that behavioral signature matches class)": "++ (5% ≤ ++ <25%)", "CE: cognitive enhancer (probability that behavioral signature matches class)": "++ (5% ≤ ++ <25%)", "DP: anti-depressant (probability that behavioral signature matches class)": "++ (5% ≤ ++ <25%)", "HA: hallucinogen (probability that behavioral signature matches class)": "+ (LOQ ≤ + <5%)", "MS: mood stabilizer (probability that behavioral signature matches class)": "++ (5% ≤ ++ <25%)", "PS: anti-psychotic (probability that behavioral signature matches class)": "+++ (25% ≤ +++ <50%)", "SD: sedative hypnotic (probability that behavioral signature matches class)": "++ (5% ≤ ++ <25%)", "UN: uncharacterized CNS activity (probability that behavioral signature matches class)": "+++ (25% ≤ +++ <50%)", "XG: anxiogenic (probability that behavioral signature matches class)": "+ (LOQ ≤ + <5%)"}, {"compound": "Fc1cccc2c1CCO[C@@H]2[C@H]1CCN1", "note": "[Compound I-96, (R)-2-((S)-5-fluoroisochroman-1-yl)azetidine]", "AD: ADHD (probability that behavioral signature matches class)": "+ (LOQ ≤ + <5%)", "AG: analgesic (probability that behavioral signature matches class)": "+++ (25% ≤ +++ <50%)", "AX: anxiolytic (probability that behavioral signature matches class)": "++ (5% ≤ ++ <25%)", "CE: cognitive enhancer (probability that behavioral signature matches class)": "++ (5% ≤ ++ <25%)", "DP: anti-depressant (probability that behavioral signature matches class)": "+++ (25% ≤ +++ <50%)", "HA: hallucinogen (probability that behavioral signature matches class)": "+ (LOQ ≤ + <5%)", "MS: mood stabilizer (probability that behavioral signature matches class)": "++ (5% ≤ ++ <25%)", "PS: anti-psychotic (probability that behavioral signature matches class)": "+++ (25% ≤ +++ <50%)", "SD: sedative hypnotic (probability that behavioral signature matches class)": "+ (LOQ ≤ + <5%)", "UN: uncharacterized CNS activity (probability that behavioral signature matches class)": "+ (LOQ ≤ + <5%)", "XG: anxiogenic (probability that behavioral signature matches class)": "+ (LOQ ≤ + <5%)"}, {"compound": "Fc1ccc2c(c1)CCO[C@H]2[C@@H]1CCN1", "note": "[Compound I-90, (S)-2-((R)-6-fluoroisochroman-1-yl)azetidine]", "AD: ADHD (probability that behavioral signature matches class)": "+ (LOQ ≤ + <5%)", "AG: analgesic (probability that behavioral signature matches class)": "++ (5% ≤ ++ <25%)", "AX: anxiolytic (probability that behavioral signature matches class)": "+++ (25% ≤ +++ <50%)", "CE: cognitive enhancer (probability that behavioral signature matches class)": "++ (5% ≤ ++ <25%)", "DP: anti-depressant (probability that behavioral signature matches class)": "+++ (25% ≤ +++ <50%)", "HA: hallucinogen (probability that behavioral signature matches class)": "+ (LOQ ≤ + <5%)", "MS: mood stabilizer (probability that behavioral signature matches class)": "+ (LOQ ≤ + <5%)", "PS: anti-psychotic (probability that behavioral signature matches class)": "++ (5% ≤ ++ <25%)", "SD: sedative hypnotic (probability that behavioral signature matches class)": "++ (5% ≤ ++ <25%)", "UN: uncharacterized CNS activity (probability that behavioral signature matches class)": "++ (5% ≤ ++ <25%)", "XG: anxiogenic (probability that behavioral signature matches class)": "+ (LOQ ≤ + <5%)"}, {"compound": "Fc1cccc2c1CCO[C@@H]2[C@@H]1CCN1", "note": "[Compound I-94, (S)-2-((S)-5-fluoroisochroman-1-yl)azetidine]", "AD: ADHD (probability that behavioral signature matches class)": "+ (LOQ ≤ + <5%)", "AG: analgesic (probability that behavioral signature matches class)": "++ (5% ≤ ++ <25%)", "AX: anxiolytic (probability that behavioral signature matches class)": "++ (5% ≤ ++ <25%)", "CE: cognitive enhancer (probability that behavioral signature matches class)": "++ (5% ≤ ++ <25%)", "DP: anti-depressant (probability that behavioral signature matches class)": "+++ (25% ≤ +++ <50%)", "HA: hallucinogen (probability that behavioral signature matches class)": "+ (LOQ ≤ + <5%)", "MS: mood stabilizer (probability that behavioral signature matches class)": "+ (LOQ ≤ + <5%)", "PS: anti-psychotic (probability that behavioral signature matches class)": "+++ (25% ≤ +++ <50%)", "SD: sedative hypnotic (probability that behavioral signature matches class)": "+ (LOQ ≤ + <5%)", "UN: uncharacterized CNS activity (probability that behavioral signature matches class)": "++ (5% ≤ ++ <25%)", "XG: anxiogenic (probability that behavioral signature matches class)": "+ (LOQ ≤ + <5%)"}, {"compound": "Fc1ccc2c(c1)[C@H]([C@@H]1CCCN1)OCC2", "note": "[Compound I-5, (2S)-2-((R)-7-fluoroisochroman-1-yl)pyrrolidine]", "AD: ADHD (probability that behavioral signature matches class)": "+ (LOQ ≤ + <5%)", "AG: analgesic (probability that behavioral signature matches class)": "++ (5% ≤ ++ <25%)", "AX: anxiolytic (probability that behavioral signature matches class)": "++ (5% ≤ ++ <25%)", "CE: cognitive enhancer (probability that behavioral signature matches class)": "++ (5% ≤ ++ <25%)", "DP: anti-depressant (probability that behavioral signature matches class)": "++ (5% ≤ ++ <25%)", "HA: hallucinogen (probability that behavioral signature matches class)": "+ (LOQ ≤ + <5%)", "MS: mood stabilizer (probability that behavioral signature matches class)": "++ (5% ≤ ++ <25%)", "PS: anti-psychotic (probability that behavioral signature matches class)": "+++ (25% ≤ +++ <50%)", "SD: sedative hypnotic (probability that behavioral signature matches class)": "+ (LOQ ≤ + <5%)", "UN: uncharacterized CNS activity (probability that behavioral signature matches class)": "+++ (25% ≤ +++ <50%)", "XG: anxiogenic (probability that behavioral signature matches class)": "+ (LOQ ≤ + <5%)"}]}]}
